Laboratory results published in patent publication US20230381348A1, “BIFUNCTIONAL MACROCYCLIC CHELATE, CONJUGATE, METAL COMPLEX AND USE THEREOF” (Jyams Pet Research & Development Limited, priority 2021, published 2023).

Key:
[1] = system: LNCap tumor-bearing mice animal models; experiment: ^177Lu-Dar-PSMA-617 treatment study (tumor size, body weight, clinical observation); format: in vivo
Experimental: LNCap tumor-bearing mice animal models were used.
Experimental Groups: • (A)^177Lu-Dar-PSMA-617 low dosage 0.25 mCi (n=7); • (B)^177Lu-Dar-PSMA-617 medium dosage 0.5 mCi (n=10); • (C)^177Lu-Dar-PSMA-617 high dosage 1 mCi (n=10).
Positive Control Groups: • (D)^177Lu-DOTA-PSMA-617 0.5 mCi (n=7); • (E)^177Lu-DOTA-PSMA-617 1 mCi (n=10).
Negative Control Groups: • (F) ^177LuCl3 1 mCi (n=10); • (G) normal saline (n=10)
Method: the day of administration was recorded as D-0, and body weight and tumor size were measured every day or every other day. After administration of ^177Lu-Dar-PSMA-617 (Group C), SPECT scan was performed at 4 h, 24 h, 72 h, 120 h, and 240 h after the administration; the control groups ^177Lu-DOTA-PSMA-617 (Group E) and ^177LuCl3 (Group F) were respectively subjected to SPECT scan at 2 h, 24 h, 72 h, and 120 h (240 h) (refer to FIG. 7, group C, group E, and group F in sequence from top to bottom). The animals were kept stationary, and CT scan was completed before/after the SPECT scan. Prior to the scan, the animals were subjected to respiratory anesthesia with isoflurane through an anesthesia machine, and the animals having undergone anesthesia induction were placed on a SPECT/CT bed. During the scan, the animals continuously inhaled isoflurane to maintain anesthesia effect. Each bed was statically scanned for 10-30 min and scan time was recorded.

LNCap tumor-bearing mice = experiment: PET imaging after tail vein injection; format: in vivo; settings: single intravenous administration, 200 μCi
Experimental: (§1) Method: LNCap tumor-bearing mice were injected with the complex ^89Zr-Dar-PSMA-617 (200 μCi) prepared in Example 9 through tail vein, while dynamic scan was performed for 60 min during the administration, and static whole body scan was performed for 10 min at different time points during 2-216 h after the administration. Refer to FIG. 1 for the mouse PET scanning image.
as §1, with “complex” for “complex ^89Zr-Dar-PSMA-617”, “Example 7” for “Example 9”, “vein,” for “vein, while”, “and the” for “and”, “points of 2-192” for “points during 2-216”, “FIG. 2” for “FIG. 1”
Method: LNCap tumor-bearing mice were injected with the complex ^68Ga-Dar-PSMA-617 (200 μCi) prepared in Example 10 through tail vein, dynamic scan was performed for 60 min during the administration, and the static whole body scan was performed for 10 min at different time points of 2-6 h after the administration. Refer to FIG. 3 for the mouse PET scanning image.

[2] = male, SD, rat, in vivo, iv
Method: About 0.1-0.2 mL of blood was collected from jugular vein plexus of the experimental animals at 5 min, 15 min, 30 min, 1 h, 2 h, 3 h, 4 h, 5 h, 6 h, 8 h, 12 h, 24 h, 48 h, 72 h, 96 h, 120 h, 144 h, and 168 h after the administration, and the rats were weighed for subsequent assay. Blood was collected from 6 males in each group at each time point, and 12 animals were cross-sampled. Each sample was subjected to gamma counting for 30 s.

[3] = In vitro stability of labeled product in mouse serum (radiochemical purity after 48 h); format: in vitro ADME
Experimental: (§2) HPLC: standard UV peak Rt=10.548 min, radioactive peak Rt=10.809 min, corresponding to the peak position of the standard.

[4] = format: physicochemical; settings: 48 h
Experimental: as §2

LNCap cells [5] = experiment: Experiment A cell uptake experiment (cell binding rate); format: cell-based; settings: for uptake rate of the blocking group: unlabeled ligand 200 times that of labeled subject; for uptake rate: 37° C.
Experimental: (§3) LNCap cells were cultured to logarithmic growth phase. After digestion with pancreatin, the resultant mixture was adjusted with complete medium into a cell suspension with a cell density of […]. Cells were inoculated in 24-well plate with 0.5-1.0 mL cells per well and the number of 1×10^5 cells per well (inoculated 2 d in advance for cell experiment). ^177Lu-Dar, ^177Lu-Dar-PSMA-617, ^177Lu-DOTA, and ^177Lu-DOTA-PSMA-617 were respectively diluted with a basic medium (with 1% HSA added) to 10 μCi/mL for subsequent use.
Unlabeled ligands Dar, DOTA, Dar-PSMA-617, and DOTA-PSMA-617 were respectively formulated to be 10 μg/mL and 25 μg/mL with basic medium (with 1% HSA added) for subsequent use.
(§4) Cells were incubated in 37° C. incubator for 1 h, 4 h, and 24 h.
Uptake experiment: blocking groups were set in cell uptake experiment, and unlabeled ligands were added in an amount of 200 times that of labeled subjects. After incubation was completed, the cell suspension was collected, followed by centrifugation at 1500 rpm for 5 min, cell pellet was collected, the supernatant was removed, the cell pellet was washed once with 0.5 mL of pre-cooled PBS, and the resultant cell pellet was collected.
(§5) Cell pellet was collected for gamma counting. Both the blank and standard tubes were assayed simultaneously in each test.
Cell binding rate=CPM of the cell lysate/CPM of the standard tube×100%

LNCap cells [6] = experiment: Experiment A efflux experiment; format: cell-based; settings: then 24 h in complete medium
Experimental: as §3, §4
Efflux experiment: after the incubation was completed, the cell suspension was collected, washed once with 0.5 mL of complete medium, added with 0.5 mL of complete medium, after resuspension, the resultant mixture was placed into original wells, incubated at 37° C. for 24 h, and then the supernatant was collected, and washed once with 0.5 mL of PBS. Cell pellet was collected after centrifugation of the supernatant and PBS washing solution; and 0.5 mL of 1 M lysis solution was utilized to digest and lyse cells in the original wells, and combined with the cell pellet.
as §5
Cell efflux rate=CPM of the efflux experiment cell lysate/CPM of the uptake experiment cell lysate×100%

LNCap cells [7] = experiment: Experiment A internalization experiment; format: cell-based
Experimental: as §3, §4
Internalization experiment: after incubation was completed, the cell suspension was collected, 0.5 mL of pre-cooled pickling solution was added, after incubation for 1 min at room temperature, the pickling solution was removed; and the resultant mixture was washed once with 0.5 mL of PBS, and cell pellet was collected.
as §5
Cell internalization rate=CPM of the cell lysate after acid pickling/CPM of the uptake experiment cell lysate×100%

[8] = system: MC38/MC38-hPDL1 bilateral tumor-bearing mice; experiment: ^89Zr-Dar-KN035 PET imaging study; format: in vivo
Experimental: Method: MC38/MC38-hPDL1 bilateral tumor-bearing mice were injected with the ^89Zr-Dar-KN035 (100 μCi) through tail vein, wherein MC38 was a tumor low-expressing PDL1, and MC38-hPDL1 was a tumor high-expressing PDL1. Dynamic scan was performed for 60 min during the administration, and static whole body scan was performed for 10 min at different time points of 1-168 h after the administration. A mouse PET scanning image is shown in FIG. 10, with MC38 on the left and MC38-hPDL1 on the right.

With `[177Lu+3].[Cl-].[Cl-].[Cl-]` [^177LuCl3] the body weight change ([1]; 1 mCi (Group C, Group F)) was “decrease rapidly”, the “adverse effects (conclusion)” value ([1]; 1 mCi (Group F)) was “severe adverse effects” and the “gross anatomy of dead mice” value ([1]; 1 mCi (Group F)) was “skeletal darkening and blood stasis of bone marrow”. The animal clinical observation ([1]; 1 mCi (Group F), starting from D-5, all animals at the later stage) was “weight loss and arched back”.

For `Cc1cc2c(O)c(c1)CN(CC(=O)O)Cc1cccc(n1)CN(CC(=O)NC[C@H]1CC[C@H](C(=O)N[C@@H](Cc3ccc4ccccc4c3)C(=O)NCCCC[C@H](NC(=O)N[C@@H](CCC(=O)O)C(=O)O)C(=O)O)CC1)Cc1cc(C)cc(c1O)CN(CC(=O)O)Cc1cccc(n1)CN(CC(=O)O)C2` [^89Zr-Dar-PSMA-617, metal not drawn], the “main distribution of radioactive substances” value (LNCap tumor-bearing mice) was “mainly distributed in the bladder and kidneys”, the “half-life period in blood” value [2] was 4.57 h and the “radiochemical purity after incubation in mouse serum” value [3] was 96%. For the same molecule, the “radiochemical purity after incubation in normal saline” value ([4]; normal saline, 37° C. water bath incubator) was 98% and the “radiochemical purity after being placed at room temperature” value ([4]; room temperature) was 98%.

With `O=C([O-])CN1CCN(CC(=O)[O-])CCN(CC(=O)[O-])CCN(CC(=O)[O-])CC1.[177Lu+3].[H+]` [^177Lu-DOTA] the “uptake rate of the blocking group” value (LNCap cells [5]; 1 h) was 0.26%, the uptake rate (LNCap cells [5]; 1 h incubation) was 0.22% and the “uptake rate of the blocking group” value (LNCap cells [5]; 4 h) was 0.24%. For the same molecule, the uptake rate (LNCap cells [5]; 4 h incubation) was 0.20%, the “uptake rate of the blocking group” value (LNCap cells [5]; 24 h) was 1.97% and the uptake rate (LNCap cells [5]; 24 h incubation) was 2.01%. The efflux rate (LNCap cells [6]; 1 h incubation) was 76.83%, the efflux rate (LNCap cells [6]; 4 h incubation) was 63.22% and the efflux rate (LNCap cells [6]; 24 h incubation) was 9.38%. The internalization rate (LNCap cells [7]; 1 h incubation) was 35.46%, the internalization rate (LNCap cells [7]; 4 h incubation) was 165.46% and the internalization rate (LNCap cells [7]; 24 h incubation) was 8.33%.

B1: ^89Zr-Dar-KN035 (conjugate, chains of the INN, looked up)
VH: QVQLVESGGGLVQPGGSLRLSCAASGKMSSRRCMAWFRQAPGKERERVAKLLTTSGSTYLADSVKGRFTISRDNSKNTVYLQMNSLRAEDTAVYYCAADSFEDPTCTLVTSSGAFQYWGQGTLVTVSS
modifications: 89Zr with Dar chelator
In the case of B1, the “uptake in tumor high-expressing PDL1 (MC38-hPDL1)” value ([8]; 100 μCi tail vein, PET 1-168 h) is reported as “significantly taken up”, the “uptake in tumor low-expressing PDL1 (MC38)” value ([8]; 100 μCi tail vein, PET 1-168 h) is reported as “almost not taken up” and the tumor selectivity ([8]; MC38-hPDL1 versus MC38) is reported as “good tumor selectivity”.
